Experimental data: patent publication US7989471B2, “Macrocyclic inhibitors of hepatitis C virus” (Tibotec Pharmaceuticals Ltd., priority 2005, dated 2011)

The compounds below were run on HCV replicons (NS3-NS5B regions of HCV type Ib) in Huh-7 luc/neo cells (assay: HCV replicon assay (Huh-Luc luciferase reporter)). Conditions: Hepatitis C virus, Huh-7, 72 h.
Assay type: cell-based
Description: The in vitro antiviral activity against HCV of the compounds of formula (I) was tested in a cellular HCV replicon system based on Lohmann et al. (1999) Science 285:110-113, with the further modifications described by Krieger et al. (2001) Journal of Virology 75: 4614-4624, which is further exemplified in the examples section. This model, while not a complete infection model for HCV, is widely accepted as the most robust and efficient model of autonomous HCV RNA replication currently available. […] It will be appreciated that it is important to distinguish between compounds that specifically interfere with HCV functions from those that exert cytotoxic or cytostatic effects in the HCV replicon model, and as a consequence cause a decrease in HCV RNA or linked reporter enzyme concentration. Assays are known in the field for the evaluation of cellular cytotoxicity based for example on the activity of mitochondrial enzymes using fluorogenic redox dyes such as resazurin. Furthermore, cellular counter screens exist for the evaluation of non-selective inhibition of linked reporter gene activity, such as firefly luciferase. Appropriate cell types can be equipped by stable transfection with a luciferase reporter gene whose expression is dependent on a constitutively active gene promoter, and such cells can be used as a counter-screen to eliminate non-selective inhibitors.
The compounds of formula (I) were examined for activity in the inhibition of HCV RNA replication in a cellular assay. […] The cellular assay was based on a bicistronic expression construct, as described by Lohmann et al. (1999) Science vol. 285 pp. 110-113 with modifications described by Krieger et al. (2001) Journal of Virology 75: 4614-4624, in a multi-target screening strategy. In essence, the method was as follows.
The assay utilized the stably transfected cell line Huh-7 luc/neo (hereafter referred to as Huh-Luc). This cell line harbors an RNA encoding a bicistronic expression construct comprising the wild type NS3-NS5B regions of HCV type Ib translated from an Internal Ribosome Entry Site (IRES) from encephalomyocarditis virus (EMCV), preceded by a reporter portion (FfL-luciferase), and a selectable marker portion (neo^R, neomycine phosphotransferase). The construct is bordered by 5′ and 3′ NTRs (non-translated regions) from HCV type Ib. Continued culture of the replicon cells in the presence of G418 (neo^R) is dependent on the replication of the HCV RNA. The stably transfected replicon cells that express HCV RNA, which replicates autonomously and to high levels, encoding inter alia luciferase, are used for screening the antiviral compounds.
The replicon cells were plated in 384 well plates in the presence of the test and control compounds which were added in various concentrations. Following an incubation of three days, HCV replication was measured by assaying luciferase activity (using standard luciferase assay substrates and reagents and a Perkin Elmer ViewLux™ ultraHTS microplate imager). Replicon cells in the control cultures have high luciferase expression in the absence of any inhibitor. The inhibitory activity of the compound on luciferase activity was monitored on the Huh-Luc cells, enabling a dose-response curve for each test compound.

| SMILES | EC50 [µM] |
| --- | --- |
| COc1ccc2c(O[C@@H]3C[C@H]4C(=O)N[C@]5(C(=O)O)C[C@H]5/C=C\CCCCCC(C)(C)C(=O)N4C3)cc(-c3nc(C(C)C)cs3)nc2c1Cl [Compound 54, 18-[8-chloro-2-(4-isopropylthiazol-2-yl)-7-methoxyquinolin-4-yloxy]-14,14-dimethyl-2,15-dioxo-3,16-diazatricyclo[14.3.0.0^4,6]nonadec-7-ene-4-carboxylic acid] | ≥ 10 |

Same assay, conditions: Hepatitis C virus, Huh-7, 72 h; Huh-Luc replicon cells, three days incubation, luciferase activity; read-out: EC50

| SMILES | EC50 [µM] |
| --- | --- |
| COc1ccc2c(O[C@@H]3C[C@H]4C(=O)N[C@]5(C(=O)NS(=O)(=O)C6CC6)C[C@H]5CCCCCCCC(=O)N4C3)cc(-c3nc(C(C)C)cs3)nc2c1 (stereo in doubt) [Compound 64, N-[17-[2-(4-isopropylthiazol-2-yl)-7-methoxyquinolin-4-yloxy]-2,14-dioxo-3,15-diazatricyclo[13.3.0.0^4,6]octadecane-4-carbonyl]-(cyclopropyl)sulfonamide] | 0.067 |
| COc1ccc2c(O[C@@H]3C[C@H]4C(=O)N[C@]5(C(=O)O)C[C@H]5/C=C\CCCCCCC(=O)N4C3)cc(-c3nc(C(C)C)cs3)nc2c1 [Compound 10, 18-[2-[4-(isopropyl)thiazol-2-yl]-7-methoxyquinolin-4-yloxy]-2,15-dioxo-3,16-diazatricyclo[14.3.0.0^4,6]nonadec-7-ene-4-carboxylic acid] | 5.04 |
| COc1ccc2c(O[C@@H]3C[C@H]4C(=O)N[C@]5(C(=O)O)C[C@H]5/C=C\CCCCCCC(=O)N4C3)cc(-c3csc(NC(C)C)n3)nc2c1 [Compound 12, 18-[2-[2-(isopropylamino)thiazol-4-yl]-7-methoxyquinolin-4-yloxy]-2,15-dioxo-3,16-diazatricyclo[14.3.0.0^4,6]nonadec-7-ene-4-carboxylic acid] | 1.98 |
| COc1ccc2c(O[C@@H]3C[C@H]4C(=O)N[C@]5(C(=O)NS(=O)(=O)C6CC6)C[C@H]5/C=C\CCCCCCC(=O)N4C3)cc(-c3csc(NC(C)C)n3)nc2c1 [Compound 13, N-[[18-[2-[2-(isopropylamino)thiazol-4-yl]-7-methoxyquinolin-4-yloxy]-2,15-dioxo-3,16-diazatricyclo[14.3.0.0^4,6]nonadec-7-en-4-yl]carbonyl](cyclopropyl)sulfonamide] | 0.02 |
| COc1ccc2c(O[C@@H]3C[C@H]4C(=O)N[C@]5(C(=O)NS(=O)(=O)C6CC6)C[C@H]5/C=C\CCCCCCC(=O)N4C3)cc(-c3nccs3)nc2c1C [Compound 26, N-[18-[2-(thiazol-2-yl)-7-methoxy-8-methylquinolin-4-yloxy]-2,15-dioxo-3,16-diazatricyclo[14.3.0.0^4,6]nonadec-7-ene-4-carbonyl]-(cyclopropyl)sulfonamide] | 0.004 |
| COc1ccc2c(O[C@@H]3C[C@H]4C(=O)N[C@]5(C(=O)O)C[C@H]5/C=C\CCCCCCC(=O)N4C3)cc(-c3nc(C(C)C)cs3)nc2c1C [Compound 29, 18-[2-(4-isopropylthiazol-2-yl)-7-methoxy-8-methylquinolin-4-yloxy]-2,15-dioxo-3,16-diazatricyclo[14.3.0.0^4,6]nonadec-7-ene-4-carboxylic acid] | 1.96 |
| COc1ccc2c(O[C@@H]3C[C@H]4C(=O)N[C@]5(C(=O)NS(=O)(=O)C6CC6)C[C@H]5/C=C\CCCCCCC(=O)N4C3)cc(-c3nc(C(C)C)cs3)nc2c1C [Compound 30, N-[18-[2-(4-isopropylthiazol-2-yl)-7-methoxy-8-methylquinolin-4-yloxy]-2,15-dioxo-3,16-diazatricyclo[14.3.0.0^4,6]nonadec-7-ene-4-carbonyl](cyclopropyl)sulfonamide] | 0.006 |
| COc1ccc2c(O[C@@H]3C[C@H]4C(=O)N[C@]5(C(=O)O)C[C@H]5/C=C\CCCCCCC(=O)N4C3)cc(-c3nccs3)nc2c1 [Compound 31, 18-[7-methoxy-2-(thiazol-2-yl)quinolin-4-yloxy]-2,15-dioxo-3,16-diazatricyclo[14.3.0.0^4,6]nonadec-7-ene-4-carboxylic acid] | 4.94 |
| COc1ccc2c(O[C@@H]3C[C@H]4C(=O)N[C@]5(C(=O)NS(=O)(=O)C6CC6)C[C@H]5/C=C\CCCCCCC(=O)N4C3)cc(-c3nccs3)nc2c1 [Compound 32, N-[18-[7-methoxy-2-(thiazol-2-yl)quinolin-4-yloxy]-2,15-dioxo-3,16-diazatricyclo[14.3.0.0^4,6]nonadec-7-ene-4-carbonyl](cyclopropyl)-sulfonamide] | 0.017 |
| COc1ccc2c(O[C@@H]3C[C@H]4C(=O)N[C@]5(C(=O)O)C[C@H]5/C=C\CCCCCCC(=O)N4C3)nc(-n3cccn3)cc2c1 [Compound 33, 18-[6-methoxy-3-(pyrazol-1-yl)isoquinolin-1-yloxy]-2,15-dioxo-3,16-diazatricyclo[14.3.0.0^4,6]nonadec-7-ene-4-carboxylic acid] | 6.1 |
| COc1ccc2c(O[C@@H]3C[C@H]4C(=O)N[C@]5(C(=O)NS(=O)(=O)C6CC6)C[C@H]5/C=C\CCCCCCC(=O)N4C3)nc(-n3cccn3)cc2c1 [Compound 34, N-[18-[6-methoxy-3-(pyrazol-1-yl)isoquinolin-1-yloxy]-2,15-dioxo-3,16-diazatricyclo[14.3.0.0^4,6]nonadec-7-ene-4-carbonyl](cyclopropyl)-sulfonamide] | 0.04 |
| COc1ccc2c(O[C@@H]3C[C@H]4C(=O)N[C@]5(C(=O)O)C[C@H]5/C=C\CCCCCCC(=O)N4C3)cc(-c3cscn3)nc2c1 [Compound 35, 18-[7-methoxy-2-(thiazol-4-yl)quinolin-4-yloxy]-2,15-dioxo-3,16-diazatricyclo[14.3.0.0^4,6]nonadec-7-ene-4-carboxylic acid] | 1.63 |
| COc1ccc2c(O[C@@H]3C[C@H]4C(=O)N[C@]5(C(=O)NS(=O)(=O)C6CC6)C[C@H]5/C=C\CCCCCCC(=O)N4C3)cc(-c3cscn3)nc2c1 [Compound 36, N-[18-[7-methoxy-2-(thiazol-4-yl)quinolin-4-yloxy]-2,15-dioxo-3,16-diazatricyclo[14.3.0.0^4,6]nonadec-7-ene-4-carbonyl](cyclopropyl)-sulfonamide] | 0.004 |
| COc1ccc2c(O[C@@H]3C[C@H]4C(=O)N[C@]5(C(=O)O)C[C@H]5/C=C\CCCCCCC(=O)N4C3)cc(-c3nccs3)nc2c1Br [Compound 41, 18-[8-bromo-7-methoxy-2-(thiazol-2-yl)quinolin-4-yloxy]-2,15-dioxo-3,16-diazatricyclo[14.3.0.0^4,6]nonadec-7-ene-4-carboxylic acid] | 0.28 |
| COc1ccc2c(O[C@@H]3C[C@H]4C(=O)N[C@]5(C(=O)NS(=O)(=O)C6CC6)C[C@H]5/C=C\CCCCCCC(=O)N4C3)cc(-c3nccs3)nc2c1Br [Compound 42, N-[18-[8-bromo-2-(thiazol-2-yl)-7-methoxyquinolin-4-yloxy]-2,15-dioxo-3,16-diazatricyclo[14.3.0.0^4,6]nonadec-7-ene-4-carbonyl]-(cyclopropyl)sulfonamide] | 0.002 |
| COc1ccc2c(O[C@@H]3C[C@H]4C(=O)N[C@]5(C(=O)NS(=O)(=O)C6CC6)C[C@H]5/C=C\CCCCCC(C)(C)C(=O)N4C3)cc(-c3nc(C(C)C)cs3)nc2c1Cl [Compound 55, N-[18-[8-chloro-2-(4-isopropylthiazol-2-yl)-7-methoxyquinolin-4-yloxy]-14,14-dimethyl-2,15-dioxo-3,16-diazatricyclo[14.3.0.0^4,6]nonadec-7-ene-4-carbonyl](cyclopropyl)sulfonamide] | 0.198 |
| COc1ccc2c(O[C@@H]3C[C@H]4C(=O)N[C@]5(C(=O)O)C[C@H]5/C=C\CCCCCC(=O)N4C3)cc(-c3nc(C(C)C)cs3)nc2c1Cl [Compound 56, 17-[8-chloro-2-(4-isopropylthiazol-2-yl)-7-methoxyquinolin-4-yloxy]-2,14-dioxo-3,15-diazatricyclo[13.3.0.0^4,6]octadec-7-ene-4-carboxylic acid] | 0.318 |
| COc1ccc2c(O[C@@H]3C[C@H]4C(=O)N[C@]5(C(=O)NS(=O)(=O)C6CC6)C[C@H]5/C=C\CCCCCC(=O)N4C3)cc(-c3nc(C(C)C)cs3)nc2c1Cl [Compound 57, N-[17-[8-chloro-2-(4-isopropylthiazol-2-yl)-7-methoxyquinolin-4-yloxy]-2,14-dioxo-3,15-diazatricyclo[13.3.0.0^4,6]octadec-7-ene-4-carbonyl]-(cyclopropyl)sulfonamide] | 0.012 |
